Measurements published in patent publication US12023390B2, “Isomerically pure 18F-labelled tetrahydrofolates” (MERCK PATENT GMBH, priority 2017, dated 2024).
Read-outs that look alike come from different tables or passages of the source. Blank lines part the entries; values can stand above or below the molecule they belong to.

Experiments:
FR-α = target: T1, FR-α (Homo sapiens, UniProt P15328); test: Displacement assay with [^3H]folic acid using KB cells; format: binding; conditions: for fold lower affinity to the FR-α compared to the oxidized form: versus 3′-aza-2′-fluorofolic acid
T1 construct: endogenous in cells; host or cells: KB cells

D4 (FR-β) = target: T2, D4 (FR-β) (Homo sapiens, UniProt P14207); test: Cell uptake and internalization in FR-β transfected CHO cells (D4); format: cell-based; conditions: for uptake into D4 cells (in words): D4 (FR-β) cells; for internalized fraction / uptake: D4 cells
T2 construct: expressed in transfected cells; host or cells: CHO cells (D4)
Protocol: (§1) The uptake and internalization of the oxidized (^18F-AzaFol) and reduced ^18F-folates (6S-isomer and 6R-isomer of ^18F-5-Me-Aza-THF) in D4 and RT16 cells which express the FR-α and FR-β, […] was studied. Both cell lines were kindly provided by Larry Matherly Wayne State University, Detroit, U.S.; Golani et al., J Med Chem, 2016, 59, 7856.
When using D4 cells that express the FR-β, the uptake of ^18F-AzaFol and the 6S-isomer of the reduced radiotracer reached approximately 70% after 1 h incubation and 80% after 3 h incubation. The internalized fraction of ^18F-AzaFol and the 6S-isomer of the reduced version was 20% and 12%, respectively, after 1 h incubation. These numbers increased slightly when the incubation time was extended to 3 h. […] No change was observed after additional two hours of incubation.

KB tumor-bearing mice = test: Biodistribution studies in KB tumor-bearing mice
[1] = Distribution coefficient (log D7.4), shake flask method; format: physicochemical; conditions: n-octanol / phosphate buffer pH 7.4, room temperature
[2] = Metabolite studies / in vivo stability (radio-UPLC of blood plasma, liver, urine); set-up: species or system mice
Protocol: (§2) In order to investigate FR-specific cell uptake and internalization, cell uptake and internalization of 6R-[^18F]1 and 6S-[^18F]1 were carried out using FR-positive KB cells. Cell uptake increased constantly over time for both diastereoisomers resulting in an uptake of about 60% (calculated per 0.3 mg of protein) of total added radioactivity after 3 h of incubation at 37° C. (FIG. 22).
The folate radiotracer 6S/6R-[^18F]5 (1:1 ratio, 53.7-52.3 MBq; 0.62-1.15 nmol) were intravenously injected into mice in order to determine the in vivo stability of the tracers. […] Ice-cold methanol containing 10 mg/mL 2-mercaptoethanol and 0.025% (v/v) ammonium hydroxide was added to the blood plasma, homogenized liver and urine in order to precipitate the proteins.^6 After centrifugation, the supernatants of the blood plasma, liver and urine samples were analyzed by radio-UPLC (FIG. 4).

FR-positive KB cells = test: Cell uptake and internalization using FR-positive KB cells; format: cell-based
Protocol: as §2

RT16 (FR-α) = target: T3, RT16 (FR-α) (Homo sapiens, UniProt P15328); test: Cell uptake and internalization in FR-α transfected CHO cells (RT16); format: cell-based
T3 construct: expressed in transfected cells; host or cells: CHO cells (RT16)
Protocol: as §1
The internalized fraction of the radiotracers reached 8-10% after 1 h and increased slightly up to 9-12% after 3 h incubation.

[3] = KB cells, displacement of [^3H]folic acid, n = 3
[4] = KB tumor-bearing mice, 30 min p.i.
[5] = KB tumor-bearing mice, 30 min p.i., ratio
[6] = KB tumor-bearing mice, 60 min p.i.
[7] = KB tumor-bearing mice, 60 min p.i. & Folic Acid (100 μg 10 min prior)
[8] = KB tumor-bearing mice, 60 min p.i., ratio
[9] = KB tumor-bearing mice, 90 min p.i.
[10] = KB tumor-bearing mice, 90 min p.i., ratio
[11] = KB tumor-bearing mice, 90 min p.i., listed as 6R-form
[12] = KB tumor-bearing mice, 90 min p.i., listed as 6R-isomer

T2 sequence (P14207 17-230): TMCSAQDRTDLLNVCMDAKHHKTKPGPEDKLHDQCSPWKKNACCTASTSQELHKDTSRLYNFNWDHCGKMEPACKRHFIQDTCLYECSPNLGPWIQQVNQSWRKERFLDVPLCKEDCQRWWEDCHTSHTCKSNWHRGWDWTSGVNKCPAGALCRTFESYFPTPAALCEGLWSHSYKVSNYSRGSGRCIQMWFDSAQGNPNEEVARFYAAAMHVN
T1 sequence (P15328 25-234): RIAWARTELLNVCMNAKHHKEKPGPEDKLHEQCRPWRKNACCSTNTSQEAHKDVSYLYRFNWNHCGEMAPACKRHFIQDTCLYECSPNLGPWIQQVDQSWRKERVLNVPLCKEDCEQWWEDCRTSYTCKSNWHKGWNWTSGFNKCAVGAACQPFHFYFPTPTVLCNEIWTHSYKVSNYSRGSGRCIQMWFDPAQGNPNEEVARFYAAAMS
T3 sequence (P15328 25-234): as above

Molecule: CN1c2c([nH]c(N)nc2=O)NC[C@@H]1CNc1ccc(C(=O)N[C@@H](CCC(=O)O)C(=O)O)cc1 [Compound 6S-5-MTHF, 6S-5-MTHF, reference compound]
IC50 (FR-α; [3]): 20.6 ± 0.4 nM

Molecule: Nc1nc2ncc(CNc3ccc(C(=O)N[C@@H](CCC(=O)O)C(=O)O)c(F)n3)nc2c(=O)[nH]1 [3′-aza-2′-[^18F]fluorofolic acid, reference compound]
IC50 (FR-α; [3]): 1.4 ± 0.5 nM

Molecule: CN1c2c(nc(N)[nH]c2=O)NC[C@H]1CNc1ccc(C(=O)N[C@@H](CCC(=O)O)C(=O)O)cc1 [Compound 6R-5-MTHF, 6R-5-MTHF, reference compound]
IC50 (FR-α; [3]): 25.8 ± 5.8 nM

Molecule: Nc1nc2ncc(CNc3ccc(C(=O)N[C@@H](CCC(=O)O)C(=O)O)c([18F])n3)nc2c(=O)[nH]1 [3′-aza-2′-[^18F]fluorofolic acid, reference compound]
uptake into D4 cells (in words) (D4 (FR-β)): significant uptake | internalized fraction (D4 (FR-β); 1 h incubation): 20% | uptake (D4 (FR-β); 1 h incubation): approximately 70% | uptake (D4 (FR-β); 3 h incubation): ~80% | in vivo stability (radiometabolites) ([2]; comparison tracer): radiometabolites in the liver were detected | uptake into RT16 cells (in words) (RT16 (FR-α)): significant uptake

The next lines start with results.

IC50 (FR-α): 23.8 ± 4 nM | fold lower affinity to the FR-α compared to the oxidized form (FR-α): about 17 fold
Molecule: CN1c2c(nc(N)[nH]c2=O)NC[C@H]1CNc1ccc(C(=O)N[C@@H](CCC(=O)O)C(=O)O)c(F)n1 [Compound 6S-1, 6S-3′-Aza-2′-Fluoro-5-Methyltetrahydrofolate]

IC50 (FR-α): 27.1 ± 3.7 nM | fold lower affinity to the FR-α compared to the oxidized form (FR-α): about 17 fold
Molecule: CN1c2c(nc(N)[nH]c2=O)NCC1CNc1ccc(C(=O)NC(CCC(=O)O)C(=O)O)c(F)n1 (stereo not drawn) [Compound 6R-1, 6R-3′-Aza-2′-Fluoro-5-Methyltetrahydrofolate]

uptake into D4 cells (in words) (D4 (FR-β)): very low | internalized fraction (D4 (FR-β); 1 h incubation): about 1% | uptake (D4 (FR-β); 1 h incubation): 3% | Biodistribution: Blood (KB tumor-bearing mice; [4]): 3.13 ± 0.31 % IA/g | Biodistribution: Bone (KB tumor-bearing mice; [4]): 2.73 ± 0.14 % IA/g | Biodistribution: Feaces (KB tumor-bearing mice; [4]): 12.2 ± 3.54 % IA/g | Biodistribution: Gall Bladder (KB tumor-bearing mice; [4]): 37.5 ± 11.7 % IA/g | Biodistribution: Heart (KB tumor-bearing mice; [4]): 2.75 ± 0.33 % IA/g | Biodistribution: Intestines (KB tumor-bearing mice; [4]): 7.68 ± 1.28 % IA/g | Biodistribution: KB Tumor (KB tumor-bearing mice; [4]): 13.3±1.80 % IA/g | Biodistribution: Kidneys (KB tumor-bearing mice; [4]): 34.5 ± 2.45 % IA/g | Biodistribution: Liver (KB tumor-bearing mice; [4]): 14.3 ± 1.36 % IA/g | Biodistribution: Lung (KB tumor-bearing mice; [4]): 3.37 ± 0.32 % IA/g | Biodistribution: Muscle (KB tumor-bearing mice; [4]): 1.54 ± 0.13 % IA/g | Biodistribution: Salivary glands (KB tumor-bearing mice; [4]): 7.16 ± 0.51 % IA/g | Biodistribution: Spleen (KB tumor-bearing mice; [4]): 8.25 ± 0.96 % IA/g | Biodistribution: Stomach (KB tumor-bearing mice; [4]): 2.20 ± 0.23 % IA/g | Tu-to-blood (KB tumor-bearing mice; [5]): 4.27 ± 0.61 | Tu-to-liver (KB tumor-bearing mice; [5]): 0.94 ± 0.14 | Biodistribution: Kidneys (KB tumor-bearing mice; KB tumor-bearing mice, 30 min p.i., listed as 6R-form): 34.5±2.45 % IA/g | Biodistribution: Liver (KB tumor-bearing mice; KB tumor-bearing mice, 30 min p.i., listed as 6R-tracer): 14.3±1.36 % IA/g | Biodistribution: Blood (KB tumor-bearing mice; [6]): 2.16 ± 0.25 % IA/g | Biodistribution: Bone (KB tumor-bearing mice; [6]): 2.43 ± 0.10 % IA/g | Biodistribution: Feaces (KB tumor-bearing mice; [6]): 17.8 ± 5.09 % IA/g | Biodistribution: Gall Bladder (KB tumor-bearing mice; [6]): 39.0 ± 22.17 % IA/g | Biodistribution: Heart (KB tumor-bearing mice; [6]): 2.38 ± 0.18 % IA/g | Biodistribution: Intestines (KB tumor-bearing mice; [6]): 6.93 ± 1.06 % IA/g | Biodistribution: KB Tumor (KB tumor-bearing mice; [6]): 18.1 ± 2.86 % IA/g | Biodistribution: Kidneys (KB tumor-bearing mice; [6]): 27.3 ± 3.07 % IA/g | Biodistribution: Liver (KB tumor-bearing mice; [6]): 14.1 ± 0.80 % IA/g | Biodistribution: Lung (KB tumor-bearing mice; [6]): 2.80 ± 0.29 % IA/g | Biodistribution: Muscle (KB tumor-bearing mice; [6]): 1.36 ± 0.15 % IA/g | Biodistribution: Salivary glands (KB tumor-bearing mice; [6]): 6.49 ± 0.93 % IA/g | Biodistribution: Spleen (KB tumor-bearing mice; [6]): 8.25 ± 0.88 % IA/g | Biodistribution: Stomach (KB tumor-bearing mice; [6]): 2.35 ± 0.49 % IA/g | Biodistribution: Blood (KB tumor-bearing mice; [7]): 1.52 ± 0.43 % IA/g | Biodistribution: Bone (KB tumor-bearing mice; [7]): 1.51 ± 0.34 % IA/g | Biodistribution: Feaces (KB tumor-bearing mice; [7]): 15.2 ± 1.75 % IA/g | Biodistribution: Gall Bladder (KB tumor-bearing mice; [7]): 26.5 ± 16.6 % IA/g | Biodistribution: Heart (KB tumor-bearing mice; [7]): 1.60 ± 0.46 % IA/g | Biodistribution: Intestines (KB tumor-bearing mice; [7]): 5.23 ± 0.73 % IA/g | Biodistribution: KB Tumor (KB tumor-bearing mice; [7]): 3.41 ± 0.88 % IA/g | Biodistribution: Kidneys (KB tumor-bearing mice; [7]): 4.80 ± 1.94 % IA/g | Biodistribution: Liver (KB tumor-bearing mice; [7]): 9.64 ± 1.55 % IA/g | Biodistribution: Lung (KB tumor-bearing mice; [7]): 1.73 ± 0.43 % IA/g | Biodistribution: Muscle (KB tumor-bearing mice; [7]): 1.05 ± 0.42 % IA/g | Biodistribution: Salivary glands (KB tumor-bearing mice; [7]): 2.61 ± 0.70 % IA/g | Biodistribution: Spleen (KB tumor-bearing mice; [7]): 3.89 ± 0.40 % IA/g | Biodistribution: Stomach (KB tumor-bearing mice; [7]): 2.02 ± 0.52 % IA/g | Tu-to-blood (KB tumor-bearing mice; [8]): 8.47 ± 1.62 | Tu-to-kidney (KB tumor-bearing mice; [8]): 0.67 ± 0.14 | Tu-to-liver (KB tumor-bearing mice; [8]): 1.29 ± 0.18 | Biodistribution: Blood (KB tumor-bearing mice; [9]): 1.92 ± 0.19 % IA/g | Biodistribution: Bone (KB tumor-bearing mice; [9]): 3.53 ± 0.90 % IA/g | Biodistribution: Feaces (KB tumor-bearing mice; [9]): 13.1 ± 6.07 % IA/g | Biodistribution: Gall Bladder (KB tumor-bearing mice; [9]): 56.7 ± 13.2 % IA/g | Biodistribution: Heart (KB tumor-bearing mice; [9]): 2.39 ± 0.47 % IA/g | Biodistribution: Intestines (KB tumor-bearing mice; [9]): 8.01 ± 2.72 % IA/g | Biodistribution: KB Tumor (KB tumor-bearing mice; [9]): 23.9 ± 2.74 % IA/g | Biodistribution: Kidneys (KB tumor-bearing mice; [9]): 29.8 ± 7.46 % IA/g | Biodistribution: Liver (KB tumor-bearing mice; [9]): 16.8 ± 3.58 % IA/g | Biodistribution: Lung (KB tumor-bearing mice; [9]): 2.92 ± 0.53 % IA/g | Biodistribution: Muscle (KB tumor-bearing mice; [9]): 1.48 ± 0.31 % IA/g | Biodistribution: Salivary glands (KB tumor-bearing mice; [9]): 7.31 ± 1.17 % IA/g | Biodistribution: Spleen (KB tumor-bearing mice; [9]): 13.0 ± 4.14 % IA/g | Biodistribution: Stomach (KB tumor-bearing mice; [9]): 2.51 ± 0.42 % IA/g | Tu-to-blood (KB tumor-bearing mice; [10]): 12.5 ± 1.46 | Tu-to-liver (KB tumor-bearing mice; [10]): 1.46 ± 0.26 | Biodistribution: Kidneys (KB tumor-bearing mice; [11]): 29.8±7.46 % IA/g | Biodistribution: Liver (KB tumor-bearing mice; [11]): 16.8±3.58 % IA/g | Biodistribution: Salivary glands (KB tumor-bearing mice; [11]): 7.31±1.17 % IA/g | Biodistribution: KB Tumor (KB tumor-bearing mice; [12]): 23.9±2.74 % IA/g | Biodistribution: Liver (KB tumor-bearing mice; [12]): 16.8±3.58 % IA/g | Biodistribution: Spleen (KB tumor-bearing mice; [12]): 13.0±4.14 % IA/g | Specificity of tumor binding (KB tumor-bearing mice; blocking by pre-injection of folic acid): 85% | factor of increase of tumor-to-kidney ratio (KB tumor-bearing mice; from 30 min p.i. to 90 min p.i.): 2.1 | logD7.4 [1]: −4.6 ± 0.1 | in vivo stability ([2]; samples taken p.i.): Only intact parent compounds were found | uptake into RT16 cells (in words) (RT16 (FR-α)): higher uptake
Molecule: 6R-3′-aza-2′-[^18F]fluoro-5-MTHF [6R-[^18F]1]
PET/CT: KB tumor xenograft uptake (KB tumor xenografts; already 1 h p.i.): High KB tumor xenograft uptake | PET/CT: blocking studies, uptake in all FR-positive tissues (KB tumor xenografts; folic acid injected 10 minutes prior to radiotracer): remarkably reduced uptake | internalized activity (FR-positive KB cells; 37° C.): around 8% | cell uptake (% of total added radioactivity) (FR-positive KB cells; 3 h incubation at 37° C., calculated per 0.3 mg of protein): about 60%
